Results: ChEMBL document CHEMBL1201862, “PubChem BioAssay data set” (2004)
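Compound exposure: 48 hours, 5 concentrations, 96-well plates. GI50 = concentration required for 50% inhibition of growth.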 Active and inactive are the calls of the source. Rule as the data show it: active = GI50 up to about 1.1 µM and inactive = higher.

Experiments:
Test in all cases: inhibition of tumour cell growth, NCI panel, 48 h
786-0 = system: 786-0
A498 = system: A498
A549 = system: A549
ACHN = system: ACHN
BT-549 = system: BT-549
COLO 205 = system: COLO 205
DLD-1 = system: DLD-1
DMS-114 = system: DMS-114
DMS-273 = system: DMS-273
DU-145 = system: DU-145
EKVX = system: EKVX
HCC 2998 = system: HCC 2998
HCT-116 = system: HCT-116
HCT-15 = system: HCT-15
HOP-18 = system: HOP-18
HOP-62 = system: HOP-62
HOP-92 = system: HOP-92
HT-29 = system: HT-29
Hs-578T = system: Hs-578T
IGROV-1 = system: IGROV-1
K562 = system: K562
KM-20L2 = system: KM-20L2
KM12 = system: KM12
LOX IMVI = system: LOX IMVI
M14 = system: M14
M19-MEL = system: M19-MEL
MCF7 = system: MCF7
MDA-MB-231 = system: MDA-MB-231
MDA-MB-435 = system: MDA-MB-435
MDA-N = system: MDA-N
MOLT-4 = system: MOLT-4
Malme-3M = system: Malme-3M
NCI-H226 = system: NCI-H226
NCI-H23 = system: NCI-H23
NCI-H522 = system: NCI-H522
NCI/ADR-RES = system: NCI/ADR-RES
OVCAR-4 = system: OVCAR-4
OVCAR-5 = system: OVCAR-5
OVCAR-8 = system: OVCAR-8
PC-3 = system: PC-3
RPMI-8226 = system: RPMI-8226
RXF 393 = system: RXF 393
SF-539 = system: SF-539
SK-MEL-28 = system: SK-MEL-28
SK-MEL-2 = system: SK-MEL-2
SK-MEL-5 = system: SK-MEL-5
SK-OV-3 = system: SK-OV-3
SN12C = system: SN12C
SNB-19 = system: SNB-19
SNB-75 = system: SNB-75
SNB-78 = system: SNB-78
SR = system: SR
SW-620 = system: SW-620
T47D = system: T47D
TK-10 = system: TK-10
U-251 = system: U-251
UACC-257 = system: UACC-257
UACC-62 = system: UACC-62
UO-31 = system: UO-31
XF498 = system: XF498
CAKI-1 = system: CAKI-1
HL-60 = system: HL-60
OVCAR-3 = system: OVCAR-3
SF-268 = system: SF-268
SF-295 = system: SF-295
CCRF-CEM = system: CCRF-CEM
NCI-H460 = system: NCI-H460

Cc1c2cnccc2c(C)c2c1c1ccccc1n2CCCN
GI50 (786-0): 0.0667 µM (active)
GI50 (A498): 0.871 µM (active)
GI50 (A549): 0.408 µM (active)
GI50 (ACHN): 0.243 µM (active)
GI50 (BT-549): 1.46 µM (inactive)
GI50 (COLO 205): 0.222 µM (active)
GI50 (DLD-1): 0.116 µM (active)
GI50 (DMS-114): 0.31 µM (active)
GI50 (DMS-273): 0.133 µM (active)
GI50 (DU-145): 0.104 µM (active)
GI50 (EKVX): 0.525 µM (active)
GI50 (HCC 2998): 0.615 µM (active)
GI50 (HCT-116): 0.0929 µM (active)
GI50 (HCT-15): 0.169 µM
GI50 (HOP-18): 0.492 µM (active)
GI50 (HOP-62): 0.637 µM (active)
GI50 (HOP-92): 0.281 µM (active)
GI50 (HT-29): 0.206 µM (active)
GI50 (Hs-578T): 0.374 µM (active)
GI50 (IGROV-1): 0.506 µM (active)
GI50 (K562): 0.138 µM (active)
GI50 (KM-20L2): 0.183 µM (active)
GI50 (KM12): 0.137 µM (active)
GI50 (LOX IMVI): 0.109 µM (active)
GI50 (M14): 0.276 µM (active)
GI50 (M19-MEL): 0.262 µM (active)
GI50 (MCF7): 0.282 µM (active)
GI50 (MDA-MB-231): 0.171 µM (active)
GI50 (MDA-MB-435): 0.129 µM (active)
GI50 (MDA-N): 0.226 µM (active)
GI50 (MOLT-4): 0.0843 µM (active)
GI50 (Malme-3M): 0.982 µM (active)
GI50 (NCI-H226): 0.873 µM (active)
GI50 (NCI-H23): 0.474 µM (active)
GI50 (NCI-H522): 0.447 µM (active)
GI50 (NCI/ADR-RES): 0.299 µM (active)
GI50 (OVCAR-4): 0.14 µM (active)
GI50 (OVCAR-5): 0.667 µM (active)
GI50 (OVCAR-8): 0.259 µM (active)
GI50 (PC-3): 0.121 µM (active)
GI50 (RPMI-8226): 0.153 µM (active)
GI50 (RXF 393): 0.301 µM (active)
GI50 (SF-539): 0.582 µM (active)
GI50 (SK-MEL-28): 0.857 µM (active)
GI50 (SK-MEL-2): 0.721 µM (active)
GI50 (SK-MEL-5): 0.755 µM (active)
GI50 (SK-OV-3): 0.74 µM (active)
GI50 (SN12C): 0.401 µM (active)
GI50 (SNB-19): 0.424 µM (active)
GI50 (SNB-75): 0.736 µM (active)
GI50 (SNB-78): 0.76 µM (active)
GI50 (SR): < 0.01 µM (active)
GI50 (SW-620): 0.0787 µM (active)
GI50 (T47D): 0.526 µM (active)
GI50 (TK-10): 0.326 µM (active)
GI50 (U-251): 0.258 µM (active)
GI50 (UACC-257): 1.09 µM (active)
GI50 (UACC-62): 0.693 µM (active)
GI50 (UO-31): 0.83 µM (active)
GI50 (XF498): 0.713 µM (active)

OC[C@@H]1CC#C/C=C\C#CC[C@@H]1CO
GI50 (786-0): > 100 µM (inactive)
GI50 (CAKI-1): > 100 µM (inactive)
GI50 (COLO 205): > 100 µM (inactive)
GI50 (DLD-1): > 100 µM (inactive)
GI50 (DMS-114): > 100 µM (inactive)
GI50 (EKVX): > 100 µM (inactive)
GI50 (HCC 2998): > 100 µM (inactive)
GI50 (HCT-116): > 100 µM (inactive)
GI50 (HCT-15): > 100 µM
GI50 (HL-60): > 100 µM (inactive)
GI50 (HOP-18): > 100 µM (inactive)
GI50 (HOP-62): > 100 µM (inactive)
GI50 (HOP-92): < 0.01 µM (active)
GI50 (HT-29): > 100 µM (inactive)
GI50 (IGROV-1): > 100 µM (inactive)
GI50 (K562): > 100 µM (inactive)
GI50 (KM12): > 100 µM (inactive)
GI50 (M14): > 100 µM (inactive)
GI50 (M19-MEL): > 100 µM (inactive)
GI50 (MOLT-4): > 100 µM (inactive)
GI50 (Malme-3M): > 100 µM (inactive)
GI50 (NCI-H23): > 100 µM (inactive)
GI50 (OVCAR-3): > 100 µM (inactive)
GI50 (OVCAR-4): > 100 µM (inactive)
GI50 (OVCAR-5): > 100 µM (inactive)
GI50 (OVCAR-8): > 100 µM (inactive)
GI50 (RPMI-8226): > 100 µM (inactive)
GI50 (RXF 393): > 100 µM (inactive)
GI50 (SF-268): < 0.01 µM (active)
GI50 (SF-295): > 100 µM (inactive)
GI50 (SF-539): > 100 µM (inactive)
GI50 (SK-MEL-28): > 100 µM (inactive)
GI50 (SK-MEL-2): > 100 µM (inactive)
GI50 (SK-MEL-5): > 100 µM (inactive)
GI50 (SK-OV-3): > 100 µM (inactive)
GI50 (SNB-19): > 100 µM (inactive)
GI50 (SNB-78): > 100 µM (inactive)
GI50 (TK-10): > 100 µM (inactive)
GI50 (U-251): > 100 µM (inactive)
GI50 (UO-31): > 100 µM (inactive)
GI50 (XF498): 0.471 µM (active)

CC1=C(O)C(=O)[C@@H]2O[C@@H]2C1=O
GI50 (A498): 7.13 µM (inactive)
GI50 (A549): 27.3 µM (inactive)
GI50 (CAKI-1): 5.69 µM (inactive)
GI50 (CCRF-CEM): 1.6 µM (inactive)
GI50 (COLO 205): 4.72 µM (inactive)
GI50 (DLD-1): 7.28 µM (inactive)
GI50 (DMS-114): 10.3 µM (inactive)
GI50 (DMS-273): 22.8 µM (inactive)
GI50 (EKVX): 14.7 µM (inactive)
GI50 (HCC 2998): 15.2 µM (inactive)
GI50 (HCT-116): 7.36 µM (inactive)
GI50 (HCT-15): 7.01 µM
GI50 (HL-60): 2.2 µM (inactive)
GI50 (HOP-18): 12.5 µM (inactive)
GI50 (HOP-62): 35.3 µM (inactive)
GI50 (HOP-92): 5.57 µM (inactive)
GI50 (HT-29): 12.1 µM (inactive)
GI50 (IGROV-1): 20.1 µM (inactive)
GI50 (K562): 5.64 µM (inactive)
GI50 (KM-20L2): 17.2 µM (inactive)
GI50 (KM12): 14.1 µM (inactive)
GI50 (LOX IMVI): 12.5 µM (inactive)
GI50 (M19-MEL): 11.2 µM (inactive)
GI50 (MCF7): 10 µM (inactive)
GI50 (MOLT-4): 2.97 µM (inactive)
GI50 (Malme-3M): 6.14 µM (inactive)
GI50 (NCI-H226): 14.5 µM (inactive)
GI50 (NCI-H23): 12.7 µM (inactive)
GI50 (NCI-H460): 19 µM (inactive)
GI50 (NCI-H522): 2 µM (inactive)
GI50 (NCI/ADR-RES): 10.7 µM (inactive)
GI50 (OVCAR-3): 6.5 µM (inactive)
GI50 (OVCAR-4): 14.6 µM (inactive)
GI50 (OVCAR-5): 16.3 µM (inactive)
GI50 (OVCAR-8): 4.79 µM (inactive)
GI50 (RPMI-8226): 3.46 µM (inactive)
GI50 (RXF 393): 2.84 µM (inactive)
GI50 (SF-268): 14.2 µM (inactive)
GI50 (SF-295): 28.2 µM (inactive)
GI50 (SF-539): 15.9 µM (inactive)
GI50 (SK-MEL-28): 5.98 µM (inactive)
GI50 (SK-MEL-2): 16 µM (inactive)
GI50 (SK-MEL-5): 16.1 µM (inactive)
GI50 (SK-OV-3): 33.4 µM (inactive)
GI50 (SN12C): 19.3 µM (inactive)
GI50 (SNB-19): 32.8 µM (inactive)
GI50 (SNB-75): 17.4 µM (inactive)
GI50 (SNB-78): 15.6 µM (inactive)
GI50 (SW-620): 3.65 µM (inactive)
GI50 (U-251): 19.4 µM (inactive)
GI50 (UACC-257): 11.1 µM (inactive)
GI50 (UACC-62): 8.49 µM (inactive)
GI50 (UO-31): 22.3 µM (inactive)
GI50 (XF498): 10.4 µM (inactive)
